Laboratory results from the kinase profiling compilation of Christmann-Franck et al. (2016).
Where “and” joins values, the source holds several entries; their conditions need not be identical. Equal entries are not always repeated.

Tests used:
Assay in all cases: radiometric filter-binding kinase assay, Kinase HotSpot
Settings in all cases: compound 0.5 µM; ATP 10 µM
ABL1 (human) = ABL1 (human) (UniProt P00519)
ABL2 (human) = ABL2 (human) (UniProt P42684)
BRSK1 (human) = BRSK1 (human) (UniProt Q8TDC3)
CAMKK2 (human) = CAMKK2 (human) (UniProt Q96RR4)
CDK5 CDK5R1 p25 (human) = CDK5 CDK5R1 p25 (human) (UniProt Q00535+Q15078)
CDK9 CCNK (human) = CDK9 CCNK (human) (UniProt O75909+P50750)
CLK3 (human) = CLK3 (human) (UniProt P49761)
CSK (human) = CSK (human) (UniProt P41240)
CSNK1D (human) = CSNK1D (human) (UniProt P48730)
CSNK1E (human) = CSNK1E (human) (UniProt P49674)
DSTYK (human) = DSTYK (human) (UniProt Q6XUX3)
DYRK1B (human) = DYRK1B (human) (UniProt Q9Y463)
EPHA7 (human) = EPHA7 (human) (UniProt Q15375)
EPHB2 (human) = EPHB2 (human) (UniProt P29323)
ERBB2 (human) = ERBB2 (human) (UniProt P04626)
FES (human) = FES (human) (UniProt P07332)
FLT1 (human) = FLT1 (human) (UniProt P17948)
HIPK3 (human) = HIPK3 (human) (UniProt Q9H422)
IGF1R (human) = IGF1R (human) (UniProt P08069)
INSRR (human) = INSRR (human) (UniProt P14616)
IRAK4 (human) = IRAK4 (human) (UniProt Q9NWZ3)
JAK2 JH1 JH2 (human) = JAK2 JH1 JH2 (human) (UniProt O60674)
MAP3K14 (human) = MAP3K14 (human) (UniProt Q99558)
MAP3K2 (human) = MAP3K2 (human) (UniProt Q9Y2U5)
MAPK9 (human) = MAPK9 (human) (UniProt P45984)
MAPKAPK3 (human) = MAPKAPK3 (human) (UniProt Q16644)
MARK3 (human) = MARK3 (human) (UniProt P27448)
MINK1 (human) = MINK1 (human) (UniProt Q8N4C8)
MKNK2 (human) = MKNK2 (human) (UniProt Q9HBH9)
MLTK (human) = MLTK (human) (UniProt Q9NYL2)
MST4 (human) = MST4 (human) (UniProt Q9P289)
NEK6 (human) = NEK6 (human) (UniProt Q9HC98)
NLK (human) = NLK (human) (UniProt Q9UBE8)
PAK7 (human) = PAK7 (human) (UniProt Q9P286)
PHKG2 (human) = PHKG2 (human) (UniProt P15735)
PKN1 (human) = PKN1 (human) (UniProt Q16512)
PRKCA (human) = PRKCA (human) (UniProt P17252)
PRKG1 (human) = PRKG1 (human) (UniProt Q13976)
PRKX (human) = PRKX (human) (UniProt P51817)
SRPK3 (human) = SRPK3 (human) (UniProt Q9UPE1)
SYK (human) = SYK (human) (UniProt P43405)
ULK2 (human) = ULK2 (human) (UniProt Q8IYT8)

Sequence of EPHA7 (human) (Q15375 whole entry, looked up): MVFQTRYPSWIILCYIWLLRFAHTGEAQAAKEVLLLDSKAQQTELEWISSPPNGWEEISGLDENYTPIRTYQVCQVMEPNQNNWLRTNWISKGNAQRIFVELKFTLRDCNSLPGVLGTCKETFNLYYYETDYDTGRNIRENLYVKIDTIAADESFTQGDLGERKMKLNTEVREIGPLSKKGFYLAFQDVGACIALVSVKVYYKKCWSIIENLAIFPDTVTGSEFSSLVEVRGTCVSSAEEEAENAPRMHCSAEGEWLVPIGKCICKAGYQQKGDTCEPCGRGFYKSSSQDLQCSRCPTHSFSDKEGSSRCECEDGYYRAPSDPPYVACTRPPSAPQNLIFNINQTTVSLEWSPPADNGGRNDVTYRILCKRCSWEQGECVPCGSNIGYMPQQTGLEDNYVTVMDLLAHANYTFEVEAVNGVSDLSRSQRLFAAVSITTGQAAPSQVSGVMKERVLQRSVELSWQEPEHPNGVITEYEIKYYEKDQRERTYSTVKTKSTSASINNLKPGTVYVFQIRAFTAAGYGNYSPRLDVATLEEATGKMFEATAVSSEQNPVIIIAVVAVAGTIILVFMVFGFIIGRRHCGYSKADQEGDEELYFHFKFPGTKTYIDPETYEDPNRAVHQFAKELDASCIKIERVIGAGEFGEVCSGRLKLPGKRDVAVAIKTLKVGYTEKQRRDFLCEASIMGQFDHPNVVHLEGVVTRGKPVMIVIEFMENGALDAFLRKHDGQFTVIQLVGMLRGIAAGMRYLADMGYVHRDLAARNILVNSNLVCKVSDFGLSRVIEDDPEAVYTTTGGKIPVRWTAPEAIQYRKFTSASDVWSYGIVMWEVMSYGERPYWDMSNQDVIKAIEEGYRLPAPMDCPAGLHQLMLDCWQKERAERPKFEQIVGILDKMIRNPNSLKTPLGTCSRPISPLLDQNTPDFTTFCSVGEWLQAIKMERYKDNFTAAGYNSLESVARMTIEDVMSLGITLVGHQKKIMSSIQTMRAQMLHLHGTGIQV
Sequence of CSNK1D (human) (P48730 whole entry, looked up): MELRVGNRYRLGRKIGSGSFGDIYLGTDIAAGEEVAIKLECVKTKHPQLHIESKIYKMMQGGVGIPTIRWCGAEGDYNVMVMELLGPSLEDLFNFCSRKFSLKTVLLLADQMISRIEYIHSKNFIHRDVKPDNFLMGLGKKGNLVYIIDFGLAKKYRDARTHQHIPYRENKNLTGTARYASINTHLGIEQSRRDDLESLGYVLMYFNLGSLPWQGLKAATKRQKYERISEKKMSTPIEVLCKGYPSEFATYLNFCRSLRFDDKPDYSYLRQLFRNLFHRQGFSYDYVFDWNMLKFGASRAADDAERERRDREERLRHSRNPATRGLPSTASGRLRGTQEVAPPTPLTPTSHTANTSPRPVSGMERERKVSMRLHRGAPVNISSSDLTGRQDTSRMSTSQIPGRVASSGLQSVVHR
Sequence of NLK (human) (Q9UBE8 whole entry, looked up): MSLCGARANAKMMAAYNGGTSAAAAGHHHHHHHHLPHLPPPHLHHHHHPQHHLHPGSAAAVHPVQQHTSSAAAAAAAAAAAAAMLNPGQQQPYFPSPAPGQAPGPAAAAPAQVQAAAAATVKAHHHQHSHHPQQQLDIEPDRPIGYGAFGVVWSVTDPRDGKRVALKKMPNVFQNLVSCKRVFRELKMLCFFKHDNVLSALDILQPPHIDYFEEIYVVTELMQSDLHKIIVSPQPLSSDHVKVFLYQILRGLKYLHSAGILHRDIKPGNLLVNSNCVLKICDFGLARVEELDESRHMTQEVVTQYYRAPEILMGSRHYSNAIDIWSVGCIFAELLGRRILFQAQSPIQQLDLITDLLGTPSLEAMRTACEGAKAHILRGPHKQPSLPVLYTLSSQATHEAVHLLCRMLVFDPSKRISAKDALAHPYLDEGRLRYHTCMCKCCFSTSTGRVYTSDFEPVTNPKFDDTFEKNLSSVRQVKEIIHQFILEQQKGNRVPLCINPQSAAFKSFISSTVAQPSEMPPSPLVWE
Sequence of PRKG1 (human) (Q13976 whole entry, looked up): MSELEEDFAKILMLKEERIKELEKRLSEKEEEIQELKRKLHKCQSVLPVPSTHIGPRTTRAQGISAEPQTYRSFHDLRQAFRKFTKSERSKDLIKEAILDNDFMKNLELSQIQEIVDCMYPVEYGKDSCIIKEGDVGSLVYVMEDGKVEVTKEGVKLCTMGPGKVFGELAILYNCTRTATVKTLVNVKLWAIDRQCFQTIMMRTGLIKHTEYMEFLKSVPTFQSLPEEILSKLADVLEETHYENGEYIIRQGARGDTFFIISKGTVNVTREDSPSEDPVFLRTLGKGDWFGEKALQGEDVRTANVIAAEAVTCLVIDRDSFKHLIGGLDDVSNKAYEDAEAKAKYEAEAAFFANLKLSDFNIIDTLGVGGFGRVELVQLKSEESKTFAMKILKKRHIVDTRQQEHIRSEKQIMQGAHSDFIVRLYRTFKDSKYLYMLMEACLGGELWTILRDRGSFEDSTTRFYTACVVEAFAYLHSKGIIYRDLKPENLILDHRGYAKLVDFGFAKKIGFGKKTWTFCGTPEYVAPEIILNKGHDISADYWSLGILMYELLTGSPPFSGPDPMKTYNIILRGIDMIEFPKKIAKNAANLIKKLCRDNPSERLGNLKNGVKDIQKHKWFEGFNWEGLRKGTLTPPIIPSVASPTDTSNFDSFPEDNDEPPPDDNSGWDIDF
Sequence of PKN1 (human) (Q16512 whole entry, looked up): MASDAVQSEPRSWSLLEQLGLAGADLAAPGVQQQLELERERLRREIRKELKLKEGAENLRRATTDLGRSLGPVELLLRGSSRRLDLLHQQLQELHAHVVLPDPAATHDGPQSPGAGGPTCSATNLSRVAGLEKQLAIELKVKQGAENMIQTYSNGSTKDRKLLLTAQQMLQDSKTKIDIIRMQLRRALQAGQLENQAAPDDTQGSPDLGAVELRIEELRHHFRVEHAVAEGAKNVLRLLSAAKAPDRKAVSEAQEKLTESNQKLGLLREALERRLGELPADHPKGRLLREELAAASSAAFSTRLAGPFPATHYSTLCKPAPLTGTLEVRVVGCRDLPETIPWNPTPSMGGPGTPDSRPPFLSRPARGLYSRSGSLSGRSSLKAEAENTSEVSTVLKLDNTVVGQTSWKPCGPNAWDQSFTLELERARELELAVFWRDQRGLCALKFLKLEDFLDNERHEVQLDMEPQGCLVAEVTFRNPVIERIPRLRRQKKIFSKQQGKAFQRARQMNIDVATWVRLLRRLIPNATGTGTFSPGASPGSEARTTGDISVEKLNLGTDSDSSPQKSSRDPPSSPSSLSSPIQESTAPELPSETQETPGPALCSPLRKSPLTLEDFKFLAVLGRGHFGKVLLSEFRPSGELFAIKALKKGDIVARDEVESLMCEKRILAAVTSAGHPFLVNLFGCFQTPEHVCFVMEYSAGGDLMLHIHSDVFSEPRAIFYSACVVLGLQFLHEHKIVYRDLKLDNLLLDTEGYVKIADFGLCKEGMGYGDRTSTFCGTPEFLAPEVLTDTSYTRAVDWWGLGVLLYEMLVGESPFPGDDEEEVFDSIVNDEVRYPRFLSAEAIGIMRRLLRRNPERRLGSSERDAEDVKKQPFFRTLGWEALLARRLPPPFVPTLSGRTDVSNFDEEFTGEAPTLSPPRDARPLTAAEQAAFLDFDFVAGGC
Sequence of INSRR (human) (P14616 whole entry, looked up): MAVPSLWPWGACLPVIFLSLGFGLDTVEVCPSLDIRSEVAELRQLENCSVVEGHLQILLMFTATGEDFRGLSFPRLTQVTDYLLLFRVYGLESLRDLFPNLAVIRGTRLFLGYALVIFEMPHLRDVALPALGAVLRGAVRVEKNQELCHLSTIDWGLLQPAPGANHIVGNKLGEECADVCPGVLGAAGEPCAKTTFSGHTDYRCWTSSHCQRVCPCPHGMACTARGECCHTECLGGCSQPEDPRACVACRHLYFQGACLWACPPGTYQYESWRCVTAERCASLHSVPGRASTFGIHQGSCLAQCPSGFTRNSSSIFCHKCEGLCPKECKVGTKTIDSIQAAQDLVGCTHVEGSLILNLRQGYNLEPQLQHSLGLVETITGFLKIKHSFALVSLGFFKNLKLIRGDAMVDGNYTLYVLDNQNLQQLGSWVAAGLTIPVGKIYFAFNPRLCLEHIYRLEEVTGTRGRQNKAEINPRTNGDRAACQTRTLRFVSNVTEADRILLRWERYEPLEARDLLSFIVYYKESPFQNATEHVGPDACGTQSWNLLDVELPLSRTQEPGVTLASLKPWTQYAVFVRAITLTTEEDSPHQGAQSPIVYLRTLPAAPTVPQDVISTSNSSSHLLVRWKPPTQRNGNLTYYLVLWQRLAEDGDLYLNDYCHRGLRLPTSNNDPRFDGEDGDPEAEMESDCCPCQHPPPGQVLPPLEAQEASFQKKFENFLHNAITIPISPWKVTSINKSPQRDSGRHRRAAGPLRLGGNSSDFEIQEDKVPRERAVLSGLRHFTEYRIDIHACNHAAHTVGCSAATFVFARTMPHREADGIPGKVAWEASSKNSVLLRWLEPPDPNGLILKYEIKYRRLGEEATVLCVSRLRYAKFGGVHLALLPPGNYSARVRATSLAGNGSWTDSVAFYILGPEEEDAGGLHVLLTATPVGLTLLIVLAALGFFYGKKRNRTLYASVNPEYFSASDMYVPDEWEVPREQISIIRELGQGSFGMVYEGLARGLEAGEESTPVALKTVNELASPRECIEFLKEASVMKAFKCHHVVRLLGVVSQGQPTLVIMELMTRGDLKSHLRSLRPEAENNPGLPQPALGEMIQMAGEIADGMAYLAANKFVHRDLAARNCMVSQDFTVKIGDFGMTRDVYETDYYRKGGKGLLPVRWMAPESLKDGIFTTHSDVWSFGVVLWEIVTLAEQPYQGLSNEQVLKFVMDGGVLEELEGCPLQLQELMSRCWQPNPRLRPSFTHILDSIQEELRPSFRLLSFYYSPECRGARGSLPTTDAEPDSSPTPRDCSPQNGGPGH

c1ccc(-c2cnc(Nc3ccc(OCCN4CCCC4)cc3)s2)cc1
residual activity (ABL1 (human)): 63.3%
residual activity (ABL2 (human)): 37.2%
residual activity (BRSK1 (human)): 97.6%
residual activity (CAMKK2 (human)): 89.4%
residual activity (CDK5 CDK5R1 p25 (human)): 80.7%
residual activity (CDK9 CCNK (human)): 39.8%
residual activity (CLK3 (human)): 94.3%
residual activity (CSK (human)): 89.9%
residual activity (CSNK1D (human)): 95.8%
residual activity (CSNK1E (human)): 81.2%
residual activity (DSTYK (human)): 90.8%
residual activity (DYRK1B (human)): 95.4%
residual activity (EPHA7 (human)): 98%
residual activity (EPHB2 (human)): 75.6%
residual activity (ERBB2 (human)): 101%
residual activity (FES (human)): 93.2%
residual activity (FLT1 (human)): 74.5%
residual activity (HIPK3 (human)): 64.8%
residual activity (IGF1R (human)): 112%
residual activity (INSRR (human)): 99.6%
residual activity (IRAK4 (human)): 86.1%
residual activity (JAK2 JH1 JH2 (human)): 92.7%
residual activity (MAP3K14 (human)): 81.9%
residual activity (MAP3K2 (human)): 104%
residual activity (MAPK9 (human)): 144%
residual activity (MAPKAPK3 (human)): 97.6%
residual activity (MARK3 (human)): 93.1%
residual activity (MINK1 (human)): 38.7%
residual activity (MKNK2 (human)): 18.6%
residual activity (MLTK (human)): 25.9%
residual activity (MST4 (human)): 101%
residual activity (NEK6 (human)): 102%
residual activity (NLK (human)): 89.7%
residual activity (PAK7 (human)): 87.2%
residual activity (PHKG2 (human)): 97%
residual activity (PKN1 (human)): 94.8%
residual activity (PRKCA (human)): 106%
residual activity (PRKG1 (human)): 96.7% and 100%
residual activity (PRKX (human)): 101%
residual activity (SRPK3 (human)): 98.2%
residual activity (SYK (human)): 89.2%
residual activity (ULK2 (human)): 78.3%

N#C/C(=C1/Nc2ccccc2S1)c1ccnc(NCCc2cccnc2)n1
residual activity (ABL1 (human)): 96.3%
residual activity (ABL2 (human)): 98.8%
residual activity (BRSK1 (human)): 92.7%
residual activity (CAMKK2 (human)): 80.4%
residual activity (CDK5 CDK5R1 p25 (human)): 90%
residual activity (CDK9 CCNK (human)): 26.6%
residual activity (CLK3 (human)): 88.5%
residual activity (CSK (human)): 93.4%
residual activity (CSNK1D (human)): 65%
residual activity (CSNK1E (human)): 74.9%
residual activity (DSTYK (human)): 93.4%
residual activity (DYRK1B (human)): 53.2%
residual activity (EPHA7 (human)): 99.4%
residual activity (EPHB2 (human)): 112%
residual activity (ERBB2 (human)): 104%
residual activity (FES (human)): 92.8%
residual activity (FLT1 (human)): 74%
residual activity (HIPK3 (human)): 106%
residual activity (IGF1R (human)): 100%
residual activity (INSRR (human)): 92.2%
residual activity (IRAK4 (human)): 83.7%
residual activity (JAK2 JH1 JH2 (human)): 106%
residual activity (MAP3K14 (human)): 109%
residual activity (MAP3K2 (human)): 98.1%
residual activity (MAPK9 (human)): 67.5%
residual activity (MAPKAPK3 (human)): 102%
residual activity (MARK3 (human)): 94.9%
residual activity (MINK1 (human)): 93.3%
residual activity (MKNK2 (human)): 51%
residual activity (MLTK (human)): 90.4%
residual activity (MST4 (human)): 104%
residual activity (NEK6 (human)): 101%
residual activity (NLK (human)): 94.9%
residual activity (PAK7 (human)): 98.9%
residual activity (PHKG2 (human)): 99.5%
residual activity (PKN1 (human)): 96.3%
residual activity (PRKCA (human)): 94.3%
residual activity (PRKG1 (human)): 97.5% and 99.4%
residual activity (PRKX (human)): 96.4%
residual activity (SRPK3 (human)): 89.5%
residual activity (SYK (human)): 92.4%
residual activity (ULK2 (human)): 116%

O=C1NC(=O)c2c1c1c3ccccc3[nH]c1c1[nH]c3cc(Br)ccc3c21
residual activity (ABL1 (human)): 83.3%
residual activity (ABL2 (human)): 93.8%
residual activity (BRSK1 (human)): 21.5%
residual activity (CAMKK2 (human)): 48.1%
residual activity (CDK5 CDK5R1 p25 (human)): 43.4%
residual activity (CDK9 CCNK (human)): 82.7%
residual activity (CLK3 (human)): 93.4%
residual activity (CSK (human)): 100%
residual activity (CSNK1D (human)): 96.9%
residual activity (CSNK1E (human)): 82.2%
residual activity (DSTYK (human)): 65.6%
residual activity (DYRK1B (human)): 82.8%
residual activity (EPHA7 (human)): 95.3%
residual activity (EPHB2 (human)): 99.5%
residual activity (ERBB2 (human)): 101%
residual activity (FES (human)): 88.1%
residual activity (FLT1 (human)): 56.5%
residual activity (HIPK3 (human)): 93.3%
residual activity (IGF1R (human)): 15%
residual activity (INSRR (human)): 85.8%
residual activity (IRAK4 (human)): 76.2%
residual activity (JAK2 JH1 JH2 (human)): 95.8%
residual activity (MAP3K14 (human)): 101%
residual activity (MAP3K2 (human)): 100%
residual activity (MAPK9 (human)): 99.6%
residual activity (MAPKAPK3 (human)): 118%
residual activity (MARK3 (human)): 57.3%
residual activity (MINK1 (human)): 52.2%
residual activity (MKNK2 (human)): 44%
residual activity (MLTK (human)): 88.8%
residual activity (MST4 (human)): 80.5%
residual activity (NEK6 (human)): 104%
residual activity (NLK (human)): 81.7%
residual activity (PAK7 (human)): 96.7%
residual activity (PHKG2 (human)): 94.8%
residual activity (PKN1 (human)): 66%
residual activity (PRKCA (human)): 72.5%
residual activity (PRKG1 (human)): 76% and 90.7%
residual activity (PRKX (human)): 85.1%
residual activity (SRPK3 (human)): 89.2%
residual activity (SYK (human)): 58.3%
residual activity (ULK2 (human)): 86%
